{"source": "patent EP1101499A2", "about": "“Diagnostic agents for pancreatic exocrine function” (Tokyo Gas Company Limited, priority 1999, dated 2001)", "key": {"[1]": {"system": "pancreatic exocrine function", "assay": "PFD test: oral BT-PABA, PABA excretion rate in urine", "format": "in vivo, rat", "details": "specificity 100%", "experimental": "The rats of the model of chronic pancreatitis and control rats, which were kept for 3 to 4 weeks after the operation, were made to fast from 9:00 AM. At 4:00 PM, 3 mg/ml of BT-PABA (PFD solution for internal use, Eisai) was orally administered in an amount of 15 mg/kg. Urine was collected for 16 hours until 9:00 AM of the next day. The amount of the collected urine and the PABA concentration in the urine were determined using a PABA measuring kit to determine the excretion rate in urine (PFD test)."}, "[2]": {"system": "pancreatic exocrine function", "assay": "13C-breath test after oral administration to chronic pancreatitis (oleic acid model) and control/normal rats", "format": "in vivo, rat", "details": "for Δ^13C value at 30 minutes after the administration: group value n=4, 30 mg/kg orally; for Δ^13C (mean) value at 15 minutes after the administration: mean n=2, 420 mg/kg orally; for Δ^13C value at 10 minutes after the administration / Δ^13C value at 20 minutes after the administration: group value n=4, 250 mg/kg orally", "experimental": "[…] The rat of 9 weeks old was fixed without anesthesia in a rat holder for a microwave irradiation apparatus. The breath was collected at a rate of about 100 to 300 ml/min using a stroke pump (Variable Stroke Pump VS-500, Shibata Kagaku Kogyo) and introduced directly to a flow cell of a ^13CO2 analyzer EX-130S (Nihon Bunko). A Perma Pure drier (MD-050-12P, Perma Pure INC.) was set between the rat holder and stroke pump to remove out water vapor in the breath. CO2 concentration was stabilized, the rat was once removed out of the rat holder and Bz-DL-Phe-(^13C-Leu).Na dissolved in distilled water was administered into the stomach using an oral sonde.\nOutput data from the ^13CO2 analyzer were AD converted and put into a personal computer (Apple Power Macintosh 8500). Using a data processing soft ware Lab VIEW (National Instruments), 10 data points at every 100 msec were integrated and averaged in an interval of 5 seconds and converted to ^13C atom %, Δ^13C (‰), and CO2 concentration (%). In this manner, the ^13C breath test was continuously carried out. […] CO2 concentration in the collected breath was held at 3 ± 0.5%.\nΔ^13C (%o) was calculated from the ^13C concentration in the exhaled CO2 at each time point (^13C tmin) and the ^13C concentration in standard CO2 (^13C std) according to the following equation: Δ^13 (C (‰) - [()^13 (C tmin -)^13 (C 0min)/)^13 C std] x 1000 [formula]"}, "chymotrypsin": {"system": "chymotrypsin", "assay": "Degradation by chymotrypsin, released leucine determined by ninhydrin reaction", "format": "biochemical, bovine", "details": "23 mM substrate, 0.16 mg/ml chymotrypsin, 20 mM HEPPS-Na pH 8.0, 37°C, 15 minutes", "experimental": "Bz-DL-Phe-(^13C-Leu) was reacted with chymotrypsin and the degradation product, leucine, generated upon action of chymotrypsin was quantitatively determined by ninhydrin reaction. The reaction was carried out in 20 mM HEPPS-Na (pH 8.0), 23 mM Bz-DL-Phe- (^13C-Leu), 0.16 mg/ml chymotrypsin (from bovine pancreas, Worthington Biochemical Corporation, #1432, Lot 37A906) at 37°C for 15 minutes. After reaction, 50 µl of citrate buffer (citric acid monohydrate), 20 µl of ninhydrin solution (50 mg/ml solution in methyl cellosolve) and 100 µl of KCN solution (0.01 M aqueous KCN solution diluted 50 times with methyl cellosolve) were added to 100 µl of the reaction mixture and heated at 100°C for 15 minutes. After cooling the ninhydrin reaction mixture to room temperature, 150 µl of 60% (V/V) ethanol was added to 100 µl of the ninhydrin reaction mixture and stirred followed by determination of an absorbance at a wave length of 570 nm. An experiment wherein all the reactions that were carried out without adding Bz-DL-Phe-(^13C-Leu) was taken as a \"blank,\" and leucine was used as a standard."}, "[3]": {"details": "individual chronic pancreatitis rats #1-#4, sodium salt 250 mg/kg orally"}, "[4]": {"details": "individual normal rats #1-#4, sodium salt 250 mg/kg orally"}}, "note": "Values joined by “and” are separate entries in the source; they are usually repeats but may differ in a detail not shown here. Identical values can stand only once.", "data": [{"compound": "O=C(O)c1ccc(NC(=O)[C@H](Cc2ccc(O)cc2)NC(=O)c2ccccc2)cc1", "note": "[PFD, N-benzoyl-L-tyrosyl-p-aminobenzoic acid]", "values": [{"measurement": "sensitivity in the PFD test", "setting": "[1]; 15 mg/kg orally, same group of rats as the Bz-DL-Phe-(^13C-Leu) breath test (n=8 / n=4)", "value": 50, "unit": "%"}, {"measurement": "sensitivity in the PFD test", "setting": "[1]; same group of rats as the Bz-Ala-(^13C-Ala) breath test (n=8 / n=7)", "value": 63, "unit": "%"}, {"measurement": "sensitivity in the PFD test", "setting": "[1]; same group of rats as the Bz-Gly-(^13C-Leu) breath test (n=10 / n=10)", "value": 50, "unit": "%"}]}, {"compound": "Arg-(^13C-Leu)", "values": [{"measurement": "Δ^13C value at 30 minutes after the administration", "setting": "[2]; chronic pancreatitis rats", "value": "4.37 ± 1.83", "unit": "%o"}, {"measurement": "Δ^13C (%o) at 30 min", "setting": "[2]; individual chronic pancreatitis rats #1-#4, 30 mg/kg orally", "value": "3.74 %o and 6.97 %o and 4.87 %o and 1.92 %o"}, {"measurement": "Δ^13C (%o) at 30 min", "setting": "[2]; individual normal rats #1-#4, 30 mg/kg orally", "value": "10.30 %o and 13.74 %o and 15.37 %o and 10.08 %o"}, {"measurement": "Δ^13C value at 30 minutes after the administration", "setting": "[2]; normal rats", "value": "12.37 ± 2.26", "unit": "%o"}]}, {"compound": "Bz-Ala-Ala-Ala-Ala-(^13C-Gly)-Phe-Leu", "values": [{"measurement": "Δ^13C (%o) at 15 min", "setting": "[2]; individual chronic pancreatitis rats #1-#2, sodium salt 420 mg/kg orally", "value": "-1.90 %o and 3.12 %o"}, {"measurement": "Δ^13C (%o) at 15 min", "setting": "[2]; individual normal rats #1-#2, sodium salt 420 mg/kg orally", "value": "23.47 %o and 43.16 %o"}]}, {"compound": "Bz-Ala-Ala-Ala-Ala-(^13C-Gly)-Phe-Leu.Na", "values": [{"measurement": "Δ^13C (mean) value at 15 minutes after the administration", "setting": "[2]; chronic pancreatitis rats", "value": 0.61, "unit": "%o"}, {"measurement": "Δ^13C (mean) value at 15 minutes after the administration", "setting": "[2]; normal rats", "value": 33.32, "unit": "%o"}]}, {"compound": "Bz-DL-Phe-(^13C-Leu)", "values": [{"measurement": "rate of degradation", "setting": "chymotrypsin", "value": 1.72, "unit": "nmole/mg chymotrypsin/min"}]}, {"compound": "Bz-DL-Phe-(^13C-Leu).Na", "values": [{"measurement": "sensitivity", "setting": "[2]; 250 mg/kg orally, Δ^13C at 10 minutes as check value, cut off set for specificity 100%, chronic pancreatitis n=8, control n=4", "value": 100, "unit": "%"}, {"measurement": "Δ^13C (‰) values at 10 minutes after the administration", "setting": "[2]; chronic pancreatitis rats (n=8) compared with control rats (n=4), 250 mg/kg orally", "value": "smaller than the smallest value of Δ ^13C (‰) for the control rats"}]}, {"compound": "Bz-Gly-(^13C-Leu)-Na", "values": [{"measurement": "sensitivity", "setting": "[2]; 50 mg/kg orally, Δ^13C at 18 minutes as check value, specificity 100%, chronic pancreatitis n=10, normal n=10", "value": 80, "unit": "%"}]}, {"compound": "Bz-L-Phe-(^13C-Leu)", "values": [{"measurement": "Δ^13C (%o) at 10 min", "setting": "[2]; [3]", "value": "1.61 %o and 3.28 %o and 17.21 %o and 5.77 %o"}, {"measurement": "Δ^13C (%o) at 10 min", "setting": "[2]; [4]", "value": "31.29 %o and 60.25 %o and 165.37 %o and 203.16 %o"}]}, {"compound": "Bz-L-Phe-(^13C-Leu).Na", "values": [{"measurement": "Δ^13C value at 10 minutes after the administration", "setting": "[2]; chronic pancreatitis rats", "value": "6.97 ± 6.09", "unit": "%o"}, {"measurement": "Δ^13C value at 10 minutes after the administration", "setting": "[2]; normal rats", "value": "115.02 ± 71.26", "unit": "%o"}]}, {"compound": "Bz-Tyr-(^13C-Leu)", "values": [{"measurement": "Δ^13C (%o) at 20 min", "setting": "[2]; [3]", "value": "8.76 %o and 3.58 %o and 2.44 %o and -0.15 %o"}, {"measurement": "Δ^13C (%o) at 20 min", "setting": "[2]; [4]", "value": "111.32 %o and 65.76 %o and 21.02 %o and 80.02 %o"}]}, {"compound": "Bz-Tyr-(^13C-Leu).Na", "values": [{"measurement": "Δ^13C value at 20 minutes after the administration", "setting": "[2]; chronic pancreatitis rats", "value": "3.66 ± 3.24", "unit": "%o"}, {"measurement": "Δ^13C value at 20 minutes after the administration", "setting": "[2]; normal rats", "value": "69.53 ± 32.50", "unit": "%o"}]}]}
